In ChEMBL document CHEMBL5584314, “Identification of an m6A Natural Inhibitor, Lobeline, That Reverses Lenvatinib Resistance in Hepatocellular Tumors” (J Nat Prod, 2024):
Active and inactive are the calls of the source. No cut-off for these calls is given here.

Assays:
[1] = tested on: Lenvatinib-resistant HCC/Len; test: Antitumor activity against human Lenvatinib-resistant HCC/Len cells xenografted in BALB/c nude mouse model of PDX assessed as inhibition of tumor volume at 1.5 mg/kg, ip cotreated with lenvatinib 5 times per week for 3 weeks; type: functional; settings: 504 h
[2] = tested on: Lenvatinib-resistant Huh7/Len; test: Anticancer activity against human Lenvatinib-resistant Huh7/Len cells assessed as reduction in UBE3B mRNA expression at 2 uM by qPCR analysis; type: functional, cell-based
[3] = tested on: Lenvatinib-resistant Huh7/Len; test: Antitumor activity against human Lenvatinib-resistant Huh7/Len cells xenografted in BALB/c nude mouse assessed as reduction in METTL3 protein expression at 1.5 mg/kg, ip 5 times per week for 3 weeks by Western blot assay; type: functional, organism-based
[4] = tested on: Lenvatinib-resistant Huh7/Len; test: Anticancer activity against human Lenvatinib-resistant Huh7/Len cells assessed as increase in m6A modification in coding region by MeRIP-m6A -sequencing analysis; type: functional, cell-based
[5] = target: N6-adenosine-methyltransferase catalytic subunit (Homo sapiens) (UniProt Q86U44); test: Inhibition of METTL3 in human Lenvatinib-resistant Huh7/Len cells assessed as effect on IFFO1 mRNA expression level at 2 uM incubated for 72 hrs by RT-PCR analysis; type: cell-based
Sequence of N6-adenosine-methyltransferase catalytic subunit (Homo sapiens) (Q86U44 whole entry): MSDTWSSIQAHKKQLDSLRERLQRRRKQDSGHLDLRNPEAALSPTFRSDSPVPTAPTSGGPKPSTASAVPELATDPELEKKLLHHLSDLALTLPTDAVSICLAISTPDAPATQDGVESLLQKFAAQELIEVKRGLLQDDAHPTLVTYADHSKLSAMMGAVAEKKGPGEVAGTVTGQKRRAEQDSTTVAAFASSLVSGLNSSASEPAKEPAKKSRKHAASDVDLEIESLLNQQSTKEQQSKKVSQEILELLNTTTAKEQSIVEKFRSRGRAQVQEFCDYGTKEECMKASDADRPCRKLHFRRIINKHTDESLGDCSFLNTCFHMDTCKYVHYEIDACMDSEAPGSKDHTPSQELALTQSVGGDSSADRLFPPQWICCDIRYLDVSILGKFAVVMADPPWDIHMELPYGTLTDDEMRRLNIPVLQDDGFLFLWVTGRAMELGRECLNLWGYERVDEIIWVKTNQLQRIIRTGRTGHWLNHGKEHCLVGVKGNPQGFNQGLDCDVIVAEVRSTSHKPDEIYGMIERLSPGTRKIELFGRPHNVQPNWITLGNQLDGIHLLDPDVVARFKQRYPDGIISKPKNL

[6] = tested on: Lenvatinib-resistant HCC/Len; test: Antitumor activity against human Lenvatinib-resistant HCC/Len cells xenografted in BALB/c nude mouse model of PDX assessed as tumor growth inhibition at 1.5 mg/kg, ip cotreated with lenvatinib 5 times per week for 3 weeks; type: functional, organism-based
[7] = target: N6-adenosine-methyltransferase catalytic subunit (Homo sapiens) (UniProt Q86U44); test: Inhibition of METTL3 in human Lenvatinib-resistant Huh7/Len cells assessed as effect on HNF4A mRNA expression level at 2 uM incubated for 72 hrs by RT-PCR analysis; type: cell-based
[8] = tested on: Lenvatinib-resistant Huh7/Len; test: Antiproliferative activity against human Lenvatinib-resistant Huh7/Len cells assessed as inhibition of clone formation ability at 5 uM preincubated for 72 hrs and measured after 7 to 10 days in presence of lenvatinib by crystal violet staining based assay; type: functional, cell-based; settings: time 10-13 day
[9] = target: N6-adenosine-methyltransferase catalytic subunit (Homo sapiens) (UniProt Q86U44); test: Inhibition of METTL3 in human Lenvatinib-resistant Huh7/Len cells assessed as effect on UCK2 mRNA expression level at 2 uM incubated for 72 hrs by RT-PCR analysis; type: cell-based
[10] = target: N6-adenosine-methyltransferase catalytic subunit (Homo sapiens) (UniProt Q86U44); test: Inhibition of METTL3 in human Lenvatinib-resistant Huh7/Len cells assessed as effect on DEK mRNA expression level at 2 uM incubated for 72 hrs by RT-PCR analysis; type: cell-based
[11] = tested on: Lenvatinib-resistant Huh7/Len; test: Anticancer activity against human Lenvatinib-resistant Huh7/Len cells assessed as reduction in UBE3B protein expression at 2 uM by Western blot analysis; type: functional, cell-based
[12] = target: N6-adenosine-methyltransferase catalytic subunit (Homo sapiens) (UniProt Q86U44); test: Inhibition of METTL3 in human Lenvatinib-resistant Huh7/Len cells assessed as effect on SLC7A11 mRNA expression level at 2 uM incubated for 72 hrs by RT-PCR analysis; type: cell-based
[13] = tested on: Lenvatinib-resistant Huh7/Len; test: Induction of apoptosis in human Lenvatinib-resistant Huh7/Len cells xenografted in BALB/c nude mouse assessed as apoptotic cells in tumor tissue at 1.5 mg/kg, ip cotreated with lenvatinib 5 times per week for 3 weeks by TUNEL assay; type: functional, organism-based
[14] = tested on: Lenvatinib-resistant Huh7/Len; test: Anticancer activity against human Lenvatinib-resistant Huh7/Len cells assessed as increase in m6A modification in promoter region by MeRIP-m6A -sequencing analysis; type: functional, cell-based
[15] = tested on: Lenvatinib-resistant Huh7/Len; test: Antitumor activity against human Lenvatinib-resistant Huh7/Len cells xenografted in BALB/c nude mouse assessed as reduction in m6A RNA level at 1.5 mg/kg, ip 5 times per week for 3 weeks by Dot blot assay; type: functional, organism-based
[16] = Toxicity in BALB/c nude mouse xenografted with human Lenvatinib-resistant Huh7/Len cells assessed as changes in body weight at 1.5 mg/kg, ip cotreated with lenvatinib 5 times per week for 3 weeks; type: organism-based; settings: in vivo, 504 h
[17] = tested on: Lenvatinib-resistant Huh7/Len; test: Antitumor activity against human Lenvatinib-resistant Huh7/Len cells xenografted in BALB/c nude mouse assessed as tumor growth inhibition at 1.5 mg/kg, ip cotreated with lenvatinib 5 times per week for 3 weeks; type: functional, organism-based
[18] = target: N6-adenosine-methyltransferase catalytic subunit (Homo sapiens) (UniProt Q86U44); test: Inhibition of METTL3 in human Lenvatinib-resistant Huh7/Len cells assessed as effect on MMP13 mRNA expression level at 2 uM incubated for 72 hrs by RT-PCR analysis; type: cell-based
[19] = Toxicity in BALB/c nude mouse PDX model xenografted with human Lenvatinib-resistant HCC/Len cells assessed as changes in organ index at 1.5 mg/kg, ip cotreated with lenvatinib 5 times per week for 3 weeks; type: organism-based; settings: in vivo, 504 h
[20] = Toxicity in BALB/c nude mouse xenografted with human Lenvatinib-resistant Huh7/Len cells assessed as changes in organ index at 1.5 mg/kg, ip cotreated with lenvatinib 5 times per week for 3 weeks; type: organism-based; settings: in vivo, 504 h
[21] = tested on: Lenvatinib-resistant Huh7/Len; test: Antitumor activity against human Lenvatinib-resistant Huh7/Len cells xenografted in BALB/c nude mouse assessed as inhibition of tumor volume at 1.5 mg/kg, ip cotreated with lenvatinib 5 times per week for 3 weeks relative to control; type: functional; settings: 504 h
[22] = target: N6-adenosine-methyltransferase catalytic subunit (Homo sapiens) (UniProt Q86U44); test: Inhibition of METTL3 in human Lenvatinib-resistant Huh7/Len cells assessed as effect on CTSL mRNA expression level at 2 uM incubated for 72 hrs by RT-PCR analysis; type: cell-based
[23] = target: N6-adenosine-methyltransferase catalytic subunit (Homo sapiens) (UniProt Q86U44); test: Inhibition of METTL3 in human Huh-7 cells assessed as down regulation of m6A RNA level at 2 uM incubated for 72 hrs by Dot blot assay; type: cell-based
[24] = tested on: Lenvatinib-resistant Huh7/Len; test: Antitumor activity against human Lenvatinib-resistant Huh7/Len cells xenografted in BALB/c nude mouse assessed as reduction in m6A level in tumor tissue at 1.5 mg/kg, ip 5 times per week for 3 weeks by immunohistochemistry analysis; type: functional, organism-based
[25] = tested on: Lenvatinib-resistant Huh7/Len; test: Anticancer activity against human Lenvatinib-resistant Huh7/Len cells assessed as increase in m6A modification in terminator region by MeRIP-m6A -sequencing analysis; type: functional, cell-based
[26] = target: N6-adenosine-methyltransferase catalytic subunit (Homo sapiens) (UniProt Q86U44); test: Inhibition of METTL3 in human Lenvatinib-resistant Huh7/Len cells assessed as effect on TIBIM6 mRNA expression level at 2 uM incubated for 72 hrs by RT-PCR analysis; type: cell-based
[27] = tested on: Lenvatinib-resistant Hep3B/Len; test: Antiproliferative activity against human Lenvatinib-resistant Hep3B/Len cells assessed as inhibition of cell viability at 5 uM after 72 hrs in presence of lenvatinib by CCK-8 assay; type: functional, cell-based
[28] = tested on: Lenvatinib-resistant Hep3B/Len; test: Inhibition of cell migration in human Lenvatinib-resistant Hep3B/Len cells at 5 uM incubated for 48 hrs in presence of lenvatinib by transwell assay relative to control; type: functional
[29] = Toxicity in BALB/c nude mouse xenografted with human Lenvatinib-resistant Huh7/Len cells assessed as changes in body weight at 1.5 mg/kg, ip administered 5 times per week for 3 weeks; type: organism-based; settings: in vivo, 504 h
[30] = tested on: Lenvatinib-resistant Hep3B/Len; test: Inhibition of cell migration in human Lenvatinib-resistant Hep3B/Len cells at 5 uM incubated for 48 hrs by transwell assay; type: functional, cell-based
Huh-7 = test: Effect on METTL3 protein expression in human Huh-7 cells at 2 uM incubated for 72 hrs by Western blot analysis; type: functional, cell-based

Question: Which inhibition in vivo at 1.5 mg/kg [1] does the source give for `CN1[C@@H](CC(=O)c2ccccc2)CCC[C@H]1C[C@H](O)c1ccccc1` [LOBELINE] here?
Answer: 60%

Question: What about the Activity [2] of the same compound?
Answer: Active

Question: What about the Activity [3] of the same compound?
Answer: inactive

Question: And the Activity [4]?
Answer: Active

Question: And the inhibition [5]?
Answer: Active

Question: And the TGI [6]?
Answer: Active

Question: What about the inhibition [7] of the same compound?
Answer: Active

Question: And the inhibition [8]?
Answer: inactive

Question: What about the inhibition [9] of the same compound?
Answer: Active

Question: What about the inhibition [10] of the same compound?
Answer: Active

Question: What about the Activity [11] of the same compound?
Answer: Active

Question: What about the inhibition [12] of the same compound?
Answer: Active

Question: And the Activity [13]?
Answer: Active

Question: And the Activity [14]?
Answer: Active

Question: And the Activity [15]?
Answer: inactive

Question: What about the Activity [16] of the same compound?
Answer: Non-Toxic

Question: What about the TGI [17] of the same compound?
Answer: Active

Question: What about the inhibition [18] of the same compound?
Answer: Active

Question: And the Activity [19]?
Answer: Non-Toxic

Question: And the Activity [20]?
Answer: Non-Toxic

Question: What about the inhibition in vivo at 1.5 mg/kg [21] of the same compound?
Answer: 68%

Question: And the inhibition [22]?
Answer: Active

Question: What about the inhibition [23] of the same compound?
Answer: Active

Question: What about the Activity [24] of the same compound?
Answer: Active

Question: What about the Activity [25] of the same compound?
Answer: Active

Question: What about the inhibition [26] of the same compound?
Answer: Active

Question: What about the inhibition [27] of the same compound?
Answer: Active

Question: What about the inhibition at 5 µM [28] of the same compound?
Answer: 42%

Question: What about the Activity [29] of the same compound?
Answer: Non-Toxic

Question: And the inhibition [30]?
Answer: inactive

Question: What about the Activity (Huh-7) of the same compound?
Answer: inactive
